Several values for one entry are separate records, joined by “and”; a condition that tells them apart may be missing. Equal values may be shown once.
Columns and labels:
[1] = biological target: early stage gametocytes (stage I to IIb/III) of P. falciparum line NF54^Pfs16; experiment: Gametocyte luciferase assay, early stage; format: cell-based, Plasmodium falciparum; settings: highest concentration 40 μM; read-out: Early stage gametocyte IC50 ± SEM
Source text: (§1) To investigate a potential role of CoA biosynthesis for host to vector transmission of the malaria parasite, we investigated the activity of our compounds on P. falciparum gametocytes, the sexual stages of P. falciparum, essential for malaria transmission. […] Parasite stage-specificity and gametocytocidal activity of the compounds was therefore investigated, utilizing a luciferase-based approach on early stage (development from stage I to IIb/III [30]) and late stage (IV to V [51]) gametocytes.
(§2) Induction of P. falciparum gametocyte differentiation and gametocyte culturing were performed as previously described. Compound activity against early stage gametocytes (covering the development from stage I to IIb/III) and late stage gametocytes (stage IV to V) of the recombinant P. falciparum line NF54^Pfs16 was assessed in concentration-response assays, in two experimental replicates consisting of two technical repeats each, at a highest concentration of 40 μM, as described earlier.

MDA-MB-231 cells = experiment: Resazurin cytotoxicity assay, MDA-MB-231; format: cell-based, human
Source text: (§3) An initial indication of compound selectivity over human cells had previously been obtained through comparison of the compounds’ IC50 values against P. falciparum asexual stages and HEK293 [22]. In the present study, the selectivity investigation was extended to a small panel of human cancer cell lines, namely the estrogen receptor (ER)-positive breast cancer cell line MCF7, the ER-negative MDA-MB-231, as well as the human prostate cancer line, PC-3. Additionally, the cytotoxic effects on mouse embryonic fibroblast cell line 3T3, which serves as the host cell for T. cruzi in our image-based amastigote assay, were investigated.
(§4) Cytotoxicity of the compounds was assessed against a panel of human cancer cell lines, namely the estrogen receptor (ER)-positive breast cancer cell line MCF7, the ER-negative MDA-MB-231 and the prostate cancer line PC-3. All the cell lines were purchased from ATCC and maintained as previously described. Two biological replicates consisting of two technical replicates each were performed to generate concentration response curves (CRC) with a final highest concentration of 40 μM. A resazurin-based assay was utilized to determine cell viability as described earlier. Additionally, the cytotoxic effects on the mouse embryonic fibroblast cell line 3T3 were assessed as part of the Trypanosoma cruzi amastigote image-based assay as outlined in [35].

MCF7 cells = experiment: Resazurin cytotoxicity assay, MCF7; format: cell-based, human
Source text: as §3, §4

T. cruzi trypomastigotes = experiment: T. cruzi trypomastigote PrestoBlue assay; format: cell-based, Trypanosoma cruzi; settings: for T. cruzi trypomastigote percent inhibition at the highest concentration tested: 40 µM, given if an IC50 could not be calculated
Description: Compound activity against T. cruzi trypomastigotes was assessed in two independent experiments, without technical repeats, at a final highest compound concentration of 40 μM in concentration-response PrestoBlue assay, as previously described.

PC-3 cells = experiment: Resazurin cytotoxicity assay, PC-3; format: cell-based, human
Source text: as §3, §4

[2] = tested on: early stage gametocytes (stage I to IIb/III) of P. falciparum line NF54^Pfs16; settings: cited from earlier work
[3] = biological target: late stage gametocytes (stage IV to V) of P. falciparum line NF54^Pfs16; experiment: Gametocyte luciferase assay, late stage; format: cell-based, Plasmodium falciparum
Source text: as §1, §2

[4] = tested on: P. falciparum developmental stages; experiment: Activity across all P. falciparum life-cycle stages tested (asexual, early and late gametocytes); format: cell-based, Plasmodium falciparum; settings: early and late stage gametocytes
Description: as §2

T. cruzi amastigotes = experiment: T. cruzi amastigote image-based assay in 3T3 host cells; format: cell-based, Trypanosoma cruzi; settings: 40 µM per footnote; given if an IC50 could not be calculated
Description: The next step taken was to determine whether the activity of the compounds was confined to P. falciparum, or whether it extended to other protozoan parasites. Compound activity against two members of another clinically important group of parasites, the kinetoplastids T. cruzi and T. b. brucei was determined. The sensitive high content imaging assay used to determine compound activity against T. cruzi assesses the intracellular amastigote life form of the parasite in the 3T3 host cell. It is important to simultaneously assess compound activity against 3T3 cells to determine potential cytotoxicity against the host cell line, since this could result in a false positive outcome. The T. b. brucei assay employs the REDOX indicator Alamar Blue to assess viability, which was developed into a 384-well assay format.
Compound activity against T. cruzi amastigotes was assessed in an image-based assay in single point concentration-response and three biological replicates, at a final highest compound concentration of […], as previously described.

3T3 cells = experiment: 3T3 host cell cytotoxicity (part of T. cruzi amastigote image-based assay); design: species or system mouse; settings: bound = highest concentration with < 50 % inhibition; read-out: 3T3 cytotoxicity IC50 ± SEM
Source text: as §3, §4

HEK293 cells = settings: as previously reported; read-out: HEK293 cytotoxicity IC50 ± SEM; cited from earlier work
[5] = tested on: T. b. brucei trypomastigote; experiment: T. b. brucei resazurin (Alamar Blue) viability assay; format: cell-based, Trypanosoma brucei brucei; settings: for IC50: highest concentration 40 μM, read-out: T. b. brucei trypomastigote IC50 ± SEM
Description: Compound activity against two members of another clinically important group of parasites, the kinetoplastids T. cruzi and T. b. brucei was determined. The sensitive high content imaging assay used to determine compound activity against T. cruzi assesses the intracellular amastigote life form of the parasite in the 3T3 host cell. […] The T. b. brucei assay employs the REDOX indicator Alamar Blue to assess viability, which was developed into a 384-well assay format.
Compound activity against T. b. brucei was assessed in a resazurin-based viability assay in concentration-response assays, without technical repeats, in two experimental replicates at a highest concentration of 40 μM, as previously described.

[6] = tested on: P. falciparum asexual blood stages (PfAS); experiment: Chemical rescue with CoA pathway intermediates, asexual stages; format: cell-based, Plasmodium falciparum; settings: for Percent rescue ± SEM by CoA, PfAS: CoA 0.8 mM; for Percent rescue ± SEM by CoA, PfAS / Percent rescue ± SEM by dephospho CoA, PfAS / Percent rescue ± SEM by pantethine, PfAS / Percent rescue ± SEM by pantothenate, PfAS: inhibitor at IC80; for Percent rescue ± SEM by dephospho CoA, PfAS: dP-CoA 0.8 mM; for Percent rescue ± SEM by pantethine, PfAS: pantethine 125 μM; for Percent rescue ± SEM by pantothenate, PfAS: pantothenate 300 μM
Description: (§5) Pantothenate is the first substrate of the pathway (Fig. 1) and its addition was intended to rescue the action of possible competitive inhibitors of the first enzyme, PanK. […] It is not known, whether P. falciparum is capable of pantetheine phosphorylation for utilization in CoA synthesis. […] Finally, the rescue ability of dP-CoA, the final substrate of CoA synthesis, was tested. […] Inhibitors competing with dP-CoA for DPCK binding were expected to be displaced, thereby rescuing parasite survival, by dP-CoA supplementation in a concentration dependent manner.
(§6) An imaging based assay was utilised to assess the chemical rescue on asexual stages of P. falciparum as described previously. All the pathway intermediates were purchased from Sigma. CoA and dP-CoA were dissolved in sterile distilled water to obtain a 20 mM stock solution, which was then aliquoted and stored at -20 °C until use. […] Each pathway intermediate was tested on the parasites at a range of concentrations to assess potential toxicity. […] On early stage P. falciparum gametocytes the same concentrations as for CoA were tested for dP-CoA; against asexual blood stage P. falciparum, late stage gametocytes and Trypanosoma b. brucei five dP-CoA concentrations were tested (2 mM, 1.5 mM, 1 mM, 0.75 mM and 0.5 mM).
(§7) The same concentration ranges of the CoA pathway intermediates were supplemented to parasites treated with the experimental compounds. The inhibitors were used at their respective final assay concentration of IC80 (as determined previously in the corresponding P. falciparum development stage or T. b. brucei assay). […] The negative control used in each assay was 0.4% DMSO, whilst the positive control was 2 μM artemisinin for asexual P. falciparum blood stages and 5 μM puromycin for all gametocyte stages and T. b. brucei. The percentage growth of the respective parasites following compound treatment was determined using Microsoft ® Excel 2010, and compared with their controls. All rescue assays were performed as two independent experiments each in duplicate point.

[7] = tested on: P. falciparum asexual blood stage; settings: cited from earlier work; for IC50: as previously reported, read-out: Asexual P. falciparum IC50 ± SEM
[8] = tested on: panel of human cancer cell lines (MCF7, MDA-MB-231, PC-3); experiment: Cytotoxicity across the panel of cell lines; format: cell-based
Source text: as §3, §4

[9] = tested on: P. falciparum early stage gametocytes (PfEG, stage I-III); experiment: Chemical rescue with CoA pathway intermediates, early stage gametocytes; format: cell-based, Plasmodium falciparum; settings: inhibitor at IC80
Description: as §5, §6
as §7, with “compounds.” for “compounds. The inhibitors were used at their respective final assay concentration of IC80 (as determined previously in the corresponding P. falciparum development stage or T. b. brucei assay).”

[10] = tested on: P. falciparum asexual blood stages / early gametocytes; experiment: Chemical rescue of MMV000570 (Table S3B; PfAS and PfEG replicates, columns not assignable); format: cell-based, Plasmodium falciparum; settings: stage and replicate not assignable
Description: as §6
as §7, with “compounds.” for “compounds. The inhibitors were used at their respective final assay concentration of IC80 (as determined previously in the corresponding P. falciparum development stage or T. b. brucei assay).”

[11] = 40 µM, given if an IC50 could not be calculated

## OC1CCCCC1C1(NC(=S)Nc2ccccc2)CCCCC1 (centres unmarked) [MMV665980]
[1]
  IC50: 7.54 ± 0.39 µM
MDA-MB-231 cells; highest concentration 40 μM, bound = highest concentration with < 50 % inhibition, read-out: MDA-MB-231 cytotoxicity IC50 ± SEM
  IC50: > 40 µM
MCF7 cells; highest concentration 40 μM, bound = highest concentration with < 50 % inhibition, read-out: MCF7 cytotoxicity IC50 ± SEM
  IC50: > 40 µM
T. cruzi trypomastigotes; highest concentration 40 μM, read-out: T. cruzi trypomastigote IC50 ± SEM
  IC50: 4.42 ± 0.89 µM
PC-3 cells; highest concentration 40 μM, bound = highest concentration with < 50 % inhibition, read-out: PC-3 cytotoxicity IC50 ± SEM
  IC50: > 20 µM
[2]; screening concentration 5 μM, threshold 50% activity
  gametocytocidal activity in earlier screen versus hit threshold (in words): lower than the hit threshold
[3]; highest concentration 40 μM, read-out: Late stage gametocyte IC50 ± SEM
  IC50: 4.15 ± 0.56 µM
[4]
  activity against all P. falciparum development stages tested (in words): moderate, single digit micromolar activity
T. cruzi amastigotes
  T. cruzi amastigote percent inhibition at the highest concentration tested: 70%
3T3 cells
  IC50: > 40 µM
HEK293 cells
  IC50: > 40 µM
[5]; [11]
  T. b. brucei trypomastigote percent inhibition at the highest concentration tested: 100%
[6]
  Percent rescue ± SEM by CoA, PfAS: 54.4 ± 2.5%
  Percent rescue ± SEM by dephospho CoA, PfAS: 46.0 ± 2.6%
  Percent rescue ± SEM by pantethine, PfAS: No
  Percent rescue ± SEM by pantothenate, PfAS: No
[7]
  IC50: 6.31 ± 1.06 µM
[8]; up to the highest tested concentration of 40 μM
  cytotoxicity against any of the cell lines investigated (in words): no or only negligible cytotoxicity

## COc1ccc2c(=O)cc(C(Cl)(Cl)Cl)oc2c1 [MMV665820]
[1]
  IC50: 0.44 ± 0.03 µM
MDA-MB-231 cells
  inhibition plateau level of the concentration-response curve, MDA-MB-231: 43%
T. cruzi trypomastigotes
  T. cruzi trypomastigote percent inhibition at the highest concentration tested: 100%
PC-3 cells
  inhibition plateau level of the concentration-response curve, PC-3: 80%
[2]; 1 μM
  inhibition against early stage gametocytes in earlier dose-response: about 50%
[9]; pantethine 10 mM
  Percent rescue ± SEM by pantethine, PfEG: No
[9]; pantothenate 625 μM
  Percent rescue ± SEM by pantothenate, PfEG: No
[3]; [11]
  Late stage gametocyte percent inhibition at the highest concentration tested: 69%
T. cruzi amastigotes
  T. cruzi amastigote percent inhibition at the highest concentration tested: 62%
[5]
  IC50: 2.5 µM
[6]
  Percent rescue ± SEM by CoA, PfAS: 113.3 ± 12.3%
  Percent rescue ± SEM by dephospho CoA, PfAS: 88.6 ± 18.3%
  Percent rescue ± SEM by pantethine, PfAS: No
  Percent rescue ± SEM by pantothenate, PfAS: No
[7]
  IC50: 0.58 ± 0.08 µM
[7]; asexual blood stage
  plateau of P. falciparum growth inhibition: 100%
[8]; MCF7, MDA-MB-231, PC-3, read-out: IC50 range against the cancer cell lines
  IC50: 0.27 to 0.43 µM

## CCc1ccc(Nc2cc(C)c3ccc(O)cc3n2)cc1.Cl [MMV000570]
[10]
  percent rescue averages ± SEM by CoA, tested at IC80 concentration: 6.4% and 8.1% and -1.6% and 26.7%
  percent rescue averages ± SEM by pantothenate, tested at IC50 concentration: 3.5% and -0.6% and 4.3% and 28.6%
  percent rescue averages ± SEM by pantothenate, tested at IC80 concentration: 3.1% and 2.2% and 2.3% and 5.2%
MDA-MB-231 cells; 40 µM
  MDA-MB-231 percent inhibition at the highest concentration tested: 90%
MCF7 cells; 40 µM
  MCF7 percent inhibition at the highest concentration tested: 96%
T. cruzi trypomastigotes
  T. cruzi trypomastigote percent inhibition at the highest concentration tested: 100%
PC-3 cells; 40 µM
  PC-3 percent inhibition at the highest concentration tested: 98%
T. cruzi amastigotes
  T. cruzi amastigote percent inhibition at the highest concentration tested: 96%
3T3 cells
  IC50: > 40 µM
HEK293 cells
  IC50: ~40 µM
[5]
  IC50: 5.85 ± 1.11 µM
[6]; compound at 1 μM
  Rescue of growth inhibitory effect by any of the intermediates (in words): could not effectively be rescued by any of the intermediates
